# According to ChEMBL document CHEMBL1131677, “Synthesis and biological evaluation of substituted 4-(OBz)phenylalanine derivatives as novel N-type calcium channel blockers” (Bioorg Med Chem Lett, 1999):
# Target: Voltage-dependent N-type calcium channel subunit alpha-1B (Homo sapiens, UniProt Q00975)
# Assay: In vitro N-type [Ca2+] channel blocking potency in IMR-32 human neuroblastoma cells
# Assay type: functional, cell-based
# Voltage-dependent N-type calcium channel subunit alpha-1B, sequence (Q00975 whole entry): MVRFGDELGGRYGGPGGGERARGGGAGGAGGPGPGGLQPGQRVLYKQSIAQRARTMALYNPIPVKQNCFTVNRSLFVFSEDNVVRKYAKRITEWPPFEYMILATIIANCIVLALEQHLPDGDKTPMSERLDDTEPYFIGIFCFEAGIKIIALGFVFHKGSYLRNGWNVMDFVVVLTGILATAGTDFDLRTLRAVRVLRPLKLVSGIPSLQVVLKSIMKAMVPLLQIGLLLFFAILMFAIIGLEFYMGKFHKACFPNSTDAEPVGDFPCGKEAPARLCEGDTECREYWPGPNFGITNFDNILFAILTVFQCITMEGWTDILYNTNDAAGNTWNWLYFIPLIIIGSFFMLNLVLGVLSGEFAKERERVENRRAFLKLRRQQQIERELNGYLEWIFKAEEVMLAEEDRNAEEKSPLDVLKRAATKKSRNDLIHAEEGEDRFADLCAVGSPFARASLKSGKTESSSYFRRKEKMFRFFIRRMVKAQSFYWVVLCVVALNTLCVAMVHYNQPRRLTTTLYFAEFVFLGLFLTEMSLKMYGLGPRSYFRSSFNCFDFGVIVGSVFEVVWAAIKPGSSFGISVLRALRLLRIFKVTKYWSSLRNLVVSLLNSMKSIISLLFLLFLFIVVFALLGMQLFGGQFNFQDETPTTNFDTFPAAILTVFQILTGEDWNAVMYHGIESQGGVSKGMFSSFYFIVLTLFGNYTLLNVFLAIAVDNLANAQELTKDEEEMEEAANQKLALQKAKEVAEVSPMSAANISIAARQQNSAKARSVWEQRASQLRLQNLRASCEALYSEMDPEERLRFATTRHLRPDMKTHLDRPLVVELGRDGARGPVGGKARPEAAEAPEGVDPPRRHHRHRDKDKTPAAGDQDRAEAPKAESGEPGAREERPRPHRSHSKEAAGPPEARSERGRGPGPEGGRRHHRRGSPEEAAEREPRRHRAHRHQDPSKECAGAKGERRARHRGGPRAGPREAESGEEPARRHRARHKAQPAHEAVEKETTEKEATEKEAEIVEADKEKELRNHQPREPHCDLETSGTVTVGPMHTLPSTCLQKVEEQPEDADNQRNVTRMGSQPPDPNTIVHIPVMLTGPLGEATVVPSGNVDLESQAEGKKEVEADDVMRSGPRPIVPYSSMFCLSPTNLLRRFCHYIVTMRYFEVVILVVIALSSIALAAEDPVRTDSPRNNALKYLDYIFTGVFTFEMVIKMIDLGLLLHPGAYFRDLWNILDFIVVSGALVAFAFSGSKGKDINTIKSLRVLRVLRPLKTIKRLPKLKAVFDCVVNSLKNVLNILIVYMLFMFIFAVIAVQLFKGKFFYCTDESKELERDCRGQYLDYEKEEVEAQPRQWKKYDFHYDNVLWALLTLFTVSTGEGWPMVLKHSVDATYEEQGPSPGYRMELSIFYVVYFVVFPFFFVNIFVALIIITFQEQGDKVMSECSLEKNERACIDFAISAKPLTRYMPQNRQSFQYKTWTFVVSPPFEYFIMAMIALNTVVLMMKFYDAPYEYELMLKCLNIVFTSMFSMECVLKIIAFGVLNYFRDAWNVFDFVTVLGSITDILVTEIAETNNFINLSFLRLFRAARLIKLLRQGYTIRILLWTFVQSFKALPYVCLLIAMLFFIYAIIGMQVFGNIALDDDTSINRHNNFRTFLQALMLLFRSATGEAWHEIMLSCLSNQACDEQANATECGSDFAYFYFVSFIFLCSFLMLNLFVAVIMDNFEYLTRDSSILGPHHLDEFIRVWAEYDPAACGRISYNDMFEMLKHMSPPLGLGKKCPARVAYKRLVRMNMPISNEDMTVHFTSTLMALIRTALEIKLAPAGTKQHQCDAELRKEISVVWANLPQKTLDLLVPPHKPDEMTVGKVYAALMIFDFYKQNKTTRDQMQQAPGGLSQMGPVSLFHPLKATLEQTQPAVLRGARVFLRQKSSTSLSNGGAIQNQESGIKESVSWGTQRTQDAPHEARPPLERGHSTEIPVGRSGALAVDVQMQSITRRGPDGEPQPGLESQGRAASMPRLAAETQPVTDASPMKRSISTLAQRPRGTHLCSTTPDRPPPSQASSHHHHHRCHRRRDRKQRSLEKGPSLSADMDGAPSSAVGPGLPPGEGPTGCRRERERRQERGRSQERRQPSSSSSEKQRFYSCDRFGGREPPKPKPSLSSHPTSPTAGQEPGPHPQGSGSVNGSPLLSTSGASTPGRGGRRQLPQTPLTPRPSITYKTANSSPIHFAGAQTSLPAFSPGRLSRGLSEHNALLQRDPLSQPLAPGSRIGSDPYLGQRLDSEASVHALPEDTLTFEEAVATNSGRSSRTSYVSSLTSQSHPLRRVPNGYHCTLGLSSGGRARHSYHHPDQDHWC
row,IC50 [µM],Compound
1,1.6,CC(C)CCN(C)CC(=O)N[C@@H](Cc1ccc(OC(=O)c2ccccc2)cc1)C(=O)NC(C)(C)C
2,1.1,CC(C)CCN1CCCC(C)C1C(=O)N[C@@H](Cc1ccc(OC(=O)c2ccccc2)cc1)C(=O)OC(C)(C)C (some centres not stated)
3,0.3,CC(C)CCN[C@@H](CC(C)C)C(=O)N[C@@H](Cc1ccc(OC(=O)c2ccccc2)cc1)C(=O)NC(C)(C)C
4,0.4,CC(C)CCN[C@@H](CC(C)C)C(=O)N[C@@H](Cc1ccc(OC(=O)c2ccccc2)cc1)C(=O)OC(C)(C)C
5,0.37,CC(C)CCN(C)[C@H](CC(C)C)C(=O)N[C@@H](Cc1ccc(OC(=O)c2ccccc2)cc1)C(=O)NC(C)(C)C
6,0.49,CC(C)CCN1CCC(C(C)C)CC1C(=O)N[C@@H](Cc1ccc(OC(=O)c2ccccc2)cc1)C(=O)OC(C)(C)C (some centres not stated)
7,1.5,CC(C)CCN1CCC(C(=O)N[C@@H](Cc2ccc(OC(=O)c3ccccc3)cc2)C(=O)OC(C)(C)C)CC1
8,0.78,CC(C)CCN1CCC(C)CC1C(=O)N[C@@H](Cc1ccc(OC(=O)c2ccccc2)cc1)C(=O)OC(C)(C)C (some centres not stated)
9,0.83,CC(C)CCN(C)[C@H](C(=O)N[C@@H](Cc1ccc(OC(=O)c2ccccc2)cc1)C(=O)NC(C)(C)C)C(C)C
10,0.32,CC(C)CCN1C(C)CCCC1C(=O)N[C@@H](Cc1ccc(OC(=O)c2ccccc2)cc1)C(=O)OC(C)(C)C (some centres not stated)
11,1,CC(C)CCN1CCCCC1C(=O)N[C@@H](Cc1ccc(OC(=O)c2ccccc2)cc1)C(=O)OC(C)(C)C (some centres not stated)
12,1,CC(C)CCN1CCN(C)CC1C(=O)N[C@@H](Cc1ccc(OC(=O)c2ccccc2)cc1)C(=O)OC(C)(C)C (some centres not stated)
